Target: human PAD4 (Homo sapiens (Human), UniProt Q9UM07)
Assay: In Vitro PAD4 BAEE Biochemical Assay
Conditions: human PAD4, BAEE substrate; 5 nM PAD4, 2 mM calcium chloride, 3 mM BAEE; geometric mean of multiple experiments
Procedure: The PCR product was ligated into linearized pET-SUMO vector (Invitrogen, Carlsbad, CA), which is part of the Champion™ pET SUMO Protein Expression System. After sequence verification for the correct orientation, the pET-SUMO-hPAD4 expression plasmid was transformed into BL21(DE3) cells.
E. Coli BL21(DE3) cells were inoculated in LB medium with kanamycin at 37° C. until A600 nm reached about 0.5. Protein expression was induced by addition of 0.5 mM IPTG (final) and continued overnight at 16° C. at 220 rpm.
Cells were harvested by centrifugation at 5000 rpm for 10 minutes at 4° C. The pellet was resuspended in 300 ml lysis buffer (20 mM Tris-HCl, pH 8.0, 1 mM EDTA, 500 mM NaCl, 1 mM (tris(2-carboxyethyl)phosphine) (TCEP), 10% glycerol, and 1% Triton X100 and EDTA free protease inhibitor) and lysed by 3× passage through a microfluidizer (Microfluidics, Newton, MA) at 18,000 psi. The cell lysate was clarified by centrifugation at 30,000 rpm for 60 minutes at 4° C. The supernatant was applied to a 5 ml Ni-HP (GE HealthCare Cat #17524701) column preequilibrated in Ni-A buffer (20 mM Tris-HCl, pH 8.0, 20 mM Imidazole, 1 mM TCEP, 10% glycerol, and 400 mM NaCl). Bound protein was eluted with a 0-100% linear gradient of 100 mL Ni-B buffer (Ni A buffer+0.5 M Imidazole).
The His-Sumo tag was cleaved using sumo protease (Thermo Fisher Cat #: 12588018) while dialyzing in buffer (20 mM Tris-HCl, pH 8.0, 1 mM EDTA, 500 mM NaCl, 1 mM TCEP, 10% glycerol). The protein was then reloaded onto a Ni-HP column for a reverse purification step and recovered in flow through fraction. The protein with His-Sumo tag removed was then polished using a 16/60 Superdex-200 gel filtration column with gel filtration buffer (20 mM Tris pH 8.0, NaCl 400 mM and 1 mM TCEP). The fractions containing the protein were pulled and frozen at −80° C.
In Vitro PAD4 BAEE Biochemical Assay
The enzymatic activity of human PAD4 was monitored in a biochemical assay in the presence or absence of compounds using the small peptidyl arginine mimic BAEE (Nα-Benzoyl-L-arginine ethyl ester hydrochloride) as substrate. PAD4 activity led to deimination of BAEE and release of ammonia. Levels of ammonia were monitored by using an amine coupling reaction and were indicative of PAD4 enzymatic activity.
One hundred nanoliters of test compounds dissolved in DMSO at various concentrations were dispensed into a 384-well black OptiPlate using a Labcyte Echo instrument. Ten microliters of a solution of recombinant PAD4 and calcium chloride diluted in PAD4 assay buffer (50 mM MOPS [3-(N-morpholino) propanesulfonic acid], pH 7.6; 50 mM sodium chloride; 0.05% Tween-20; 2 mM dithiothreitol) was added to the compound-containing plate and was incubated for 30 minutes at 25° C. Ten microliters of a solution of BAEE (Sigma-Aldrich #B4500) diluted in PAD4 assay buffer was then added to start the reaction. Final concentrations were 5 nM PAD4, 2 mM calcium chloride, and 3 mM BAEE. The reaction mixture was incubated at 25° C. for 2 hours and was stopped with the addition of 10 microliters of a solution of 75 mM EDTA (Ethylenediaminetetraacetic acid) in PAD4 assay buffer. Thirty microliters of detection solution (5 mM o-phthalaldehyde, 50 mM MOPS [3-(N-morpholino) propanesulfonic acid], pH 7.6; 50 mM sodium chloride; 0.05% Tween-20; 5 mM dithiothreitol) was then added and the reaction was incubated for 1 hour at 25° C. The level of fluorescent thiol-substituted isoindole resulting from the reaction of ammonia, o-phthalaldehyde, and dithiothreitol was measured on an Envision plate reader (PerkinElmer) with 405 nm excitation and 535 nm emission.

Sequence of human PAD4 (Q9UM07 2-663): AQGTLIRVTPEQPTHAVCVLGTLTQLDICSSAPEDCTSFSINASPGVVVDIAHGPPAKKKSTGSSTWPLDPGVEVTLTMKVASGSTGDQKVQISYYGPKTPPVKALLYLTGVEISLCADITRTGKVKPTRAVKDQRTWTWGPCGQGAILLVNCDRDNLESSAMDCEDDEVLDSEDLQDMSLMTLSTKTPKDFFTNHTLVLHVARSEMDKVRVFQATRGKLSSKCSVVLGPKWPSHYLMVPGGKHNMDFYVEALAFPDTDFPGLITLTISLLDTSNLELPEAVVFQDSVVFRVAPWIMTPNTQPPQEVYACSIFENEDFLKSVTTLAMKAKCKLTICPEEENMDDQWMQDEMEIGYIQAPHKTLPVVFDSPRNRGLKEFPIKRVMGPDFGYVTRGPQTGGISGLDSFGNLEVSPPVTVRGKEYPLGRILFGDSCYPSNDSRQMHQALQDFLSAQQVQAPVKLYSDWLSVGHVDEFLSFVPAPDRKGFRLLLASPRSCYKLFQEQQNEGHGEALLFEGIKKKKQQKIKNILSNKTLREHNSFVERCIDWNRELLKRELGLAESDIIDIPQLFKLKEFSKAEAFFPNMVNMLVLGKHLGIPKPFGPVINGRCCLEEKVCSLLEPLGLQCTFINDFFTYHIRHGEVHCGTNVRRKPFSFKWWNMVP

IC50 [nM]	SMILES
316	COc1cc(C(=O)N2CCC[C@@H](N)C2)cc2nc(-c3cc4ccc(N(CC(F)(F)F)S(C)(=O)=O)nc4n3CC3CC3)n(C)c12 [Example 16, (R)-N-(2-(5-(3-aminopiperidine-1-carbonyl)-7-methoxy-1-methyl-1H-benzo[d]imidazol-2-yl)-1-(cyclopropylmethyl)-1H-pyrrolo [2,3-b]pyridin-6-yl)-N-(2,2,2-trifluoroethyl) methanesulfonamide]
88.5	COc1cc(C(=O)N2CCC[C@@H](N)C2)cc2nc(-c3cc4ccc(N(C5CC5)S(C)(=O)=O)nc4n3CC3CC3)n(C)c12 [Example 17, (R)-N-(2-(5-(3-aminopiperidine-1-carbonyl)-7-methoxy-1-methyl-1H-benzo[d]imidazol-2-yl)-1-(cyclopropylmethyl)-1H-pyrrolo [2,3-b]pyridin-6-yl)-N-cyclopropylmethanesulfonamide]
83	COc1cc(C(=O)N2CCC[C@@H](N)C2)cc2nc(-c3cc4ccc(N(C(F)F)S(C)(=O)=O)nc4n3CC3CC3)n(C)c12 [Example 18, (R)-N-(2-(5-(3-aminopiperidine-1-carbonyl)-7-methoxy-1-methyl-1H-benzo[d]imidazol-2-yl)-1-(cyclopropylmethyl)-1H-pyrrolo[2,3-b]pyridin-6-yl)-N-(difluoromethyl) methanesulfonamide]
181	COc1cc(C(=O)N2CCC[C@@H](N)C2)cc2nc(-c3cc4ccc(N(CC(F)F)S(C)(=O)=O)nc4n3CC3CC3)n(C)c12 [Example 19, (R)-N-(2-(5-(3-aminopiperidine-1-carbonyl)-7-methoxy-1-methyl-1H-benzo[d]imidazol-2-yl)-1-(cyclopropylmethyl)-1H-pyrrolo [2,3-b]pyridin-6-yl)-N-(2,2-difluoroethyl) methanesulfonamide]
50000	COc1cc(C(=O)N2CCC[C@@H](N)C2)cc2nc(-c3cc4ccc(N(CC5CC5)S(C)(=O)=O)nc4n3CC3CC3)n(C)c12 [Example 20, (R)-N-(2-(5-(3-aminopiperidine-1-carbonyl)-7-methoxy-1-methyl-1H-benzo[d]imidazol-2-yl)-1-(cyclopropylmethyl)-1H-pyrrolo [2,3-b]pyridin-6-yl)-N-(cyclopropylmethyl) methanesulfonamide]
50000	COc1cc(C(=O)N2CCC[C@@H](N)C2)cc2nc(-c3cc4ccc(N(CC5CCC5)S(C)(=O)=O)nc4n3CC3CC3)n(C)c12 [Example 21, (R)-N-(2-(5-(3-aminopiperidine-1-carbonyl)-7-methoxy-1-methyl-1H-benzo[d]imidazol-2-yl)-1-(cyclopropylmethyl)-1H-pyrrolo[2,3-b]pyridin-6-yl)-N-(cyclobutylmethyl) methanesulfonamide]
125	COc1cc(C(=O)N2CCC[C@@H](N)C2)cc2nc(-c3cc4ccc(N(C)S(C)(=O)=O)nc4n3CC3CC3)n(CC3CC3)c12 [Example 23, (R)-N-(2-(5-(3-aminopiperidine-1-carbonyl)-1-(cyclopropylmethyl)-7-methoxy-1H-benzo[d]imidazol-2-yl)-1-(cyclopropylmethyl)-1H-pyrrolo[2,3-b]pyridin-6-yl)-N-methylmethanesulfonamide]
124	COc1cc(C(=O)N2CCC[C@@H](N)[C@H]2C)cc2nc(-c3cc4ccc(N(C)S(C)(=O)=O)nc4n3CC3CC3)n(CC3CC3)c12 [Example 24, N-(2-(5-((2R,3R)-3-amino-2-methylpiperidine-1-carbonyl)-1-(cyclopropylmethyl)-7-methoxy-1H-benzo[d]imidazol-2-yl)-1-(cyclopropylmethyl)-1H-pyrrolo [2,3-b]pyridin-6-yl)-N-methylmethanesulfonamide]
82	CCN(c1ccc2cc(-c3nc4cc(C(=O)N5CCC[C@@H](N)C5)cc(OC)c4n3C)n(CC3CC3)c2n1)S(=O)(=O)C1CC1 [Example 25, (R)-N-(2-(5-(3-aminopiperidine-1-carbonyl)-7-methoxy-1-methyl-1H-benzo[d]imidazol-2-yl)-1-(cyclopropylmethyl)-1H-pyrrolo [2,3-b]pyridin-6-yl)-N-ethylcyclopropanesulfonamide]

— patent US11878965B2, “Inhibitors of peptidylarginine deiminases” (Gilead Sciences, Inc., priority 2020, dated 2024)
